# From patent publication US20220047475A1, “COSMETIC USE OF A SHORT CHAIN FATTY ACID (SCFA) FOR PREVENTING AND/OR TREATING DRY SKIN AND/OR AGED SKIN” (L'OREAL, priority 2018, published 2022)
# Tests used:
# [1] = system: sebocytes; test: High content screening (HCS) imaging of sebocytes: lipid droplets (BODIPY) and nuclei (Hoechst); type: cell-based; conditions: for Nuclear count / Size of nucleus: 5 mmol.L^−1, mean ± SD, holocrine secretion
# Protocol: Cell culture. […] D2650) in liquid nitrogen have been thawed in a water bath at 37° C. and directly washed with prewarmed […] culture media (Table 1). 3T3m cells were plated at 40.10^3 cells·cm^2 in a 175 cm^2 flask (Thermoscientific Ref. 159910) and incubated 2 hours at 37° C., 5% CO2. […] Vials containing sebocytes were thawed in a water bath at 37° C. and directly washed with prewarmed […] culture media. Sebocytes were plated at 2600 cells·cm^2 in a 175 cm^2 flask containing attached 3T3m cells and incubated (37° C., 5% CO2) to reach 70-80% confluence. After 5 days, cells were harvested using trypsin (Gibco Ref. 25300) and transferred in 96 well plates (10×10^3 cells per well, Greiner Bio-one Ref. 655956) and incubated (37° C., 5% CO2). Cell treatment. […] For valeric acid, the pH in modified cell media was neutralized with NaOH (Sodium hydroxide, Sigma 283060). […]) were both dissolved in pure ethanol (Merck Ref. 1.00983) for a final concentration per well of 60 μmar'. For these treatments, modified cell media supplemented with pure ethanol was used as controls. Supernatants (25%) sampled in exponential and stationary phases were neutralized with NaOH and were controlled with modified cell media supplemented at 25% with pure bacterial culture media. All conditions were repeated 8 times (n=8) for SOFA experiments and 24 times (n=24) for supernatants assays. Microplates were incubated 48 hours (37° C., 5% CO2) and directly sampled and/or stained and analyzed. Cell staining. […] Lipid droplets were stained with BODIPY (Invitrogen Ref. […]) diluted in DPBS solution supplemented with delipidated BSA (Bovin Serum Albumin, Sigma Ref. A7906). Nuclei were stained with Hoechst (Invitrogen, Ref. H3570) diluted in DPBS solution. High content imaging, images analysis and statistics. […] Images were analyzed using the MetaXpress image based module Transfluor (Molecular Devices). Results were exported into GraphPad Prism (version 7.01) to determine statistical significance using One-way ANOVA and expressed on bar graph as mean±SD or on box plot±min and max. *: […] Sebocytes were seeded in 96 well plates, followed by treatment with SOFA and/or LCFAs with at least 8 replicate wells (1 column) for each condition.
# [2] = system: sebocytes; test: Quantification of secreted triglycerides (TGs) in sebocyte supernatants; type: cell-based; conditions: for % of excreted TGs (compared to control) / FC (compared to control) of excreted TGs: 5 mmol.L^−1, 24 h
# Protocol: Cell culture. Vials containing 3T3 mitomycine treated cells stored in 20% DMSO (Dimethylsulf oxide, Sigma Ref. D2650) in liquid nitrogen have been thawed in a water bath at 37° C. and directly washed with prewarmed G7F culture media (Table 1). 3T3m cells were plated at 40.10^3 cells·cm^2 in a 175 cm^2 flask (Thermoscientific Ref. 159910) and incubated 2 hours at 37° C., 5% CO2. Sebocytes were obtained from primary cell line and stored in 10% DMSO in liquid nitrogen. Vials containing sebocytes were thawed in a water bath at 37° C. and directly washed with prewarmed G7F culture media. Sebocytes were plated at 2600 cells·cm^2 in a 175 cm^2 flask containing attached 3T3m cells and incubated (37° C., 5% CO2) to reach 70-80% confluence. After 5 days, cells were harvested using trypsin (Gibco Ref. 25300) and transferred in 96 well plates (10×10^3 cells per well, Greiner Bio-one Ref. 655956) and incubated (37° C., 5% CO2).
# Cell treatment. After 24 hours, cell media was replaced by modified cell media (G7F w/o hydrocortisone and w/o antibiotic-antimycotic) supplemented with: modified cell media (control), sodium acetate (CH3COONa, Sigma Ref. 32319), sodium propionate (CH3CH2COONa, Sigma Ref. P1880), sodium butyrate (CH3(CH2)2COONa Sigma Ref. 303410), valeric acid (CH3(CH2)3COOH, Sigma Ref. 75054). For valeric acid, the pH in modified cell media was neutralized with NaOH (Sodium hydroxide, Sigma 283060). Palmitic acid (C16:0, Cayman Ref. 10006627) and linoleic acid (C18:2 cis 9.12, Sigma Ref. L1376) were both dissolved in pure ethanol (Merck Ref. 1.00983) for a final concentration per well of 60 μmar′. For these treatments, modified cell media supplemented with pure ethanol was used as controls. Supernatants (25%) sampled in exponential and stationary phases were neutralized with NaOH and were controlled with modified cell media supplemented at 25% with pure bacterial culture media. All conditions were repeated 8 times (n=8) for SOFA experiments and 24 times (n=24) for supernatants assays. […]
# Triglycerides quantification. Assays have been realized using Triglycerides Assays Kit—Quantification (Abcam, ref. Ab65336) following manufacturer's instructions. Each supernatant of the 8 replicates have been sampled (50 μl) and analyzed following the colorimetric detection method of the kit (OD 570 nm) using a plate reader Infinite 200PRO (Tecan).
# Holocrine secretion is the final step of sebogenic process wherein the mature cells burst to release the lipid contents. Promotion of holocrine secretion by SOFA was based on observations and interpretations of a lower number of cells in association with an enlargement of nuclear area.
# [3] = sebocytes, 2.5, 5, 10 and 15 mmol·l^−1
smiles,measurement,setting,value
"CC(=O)[O-].[Na+] [Acetate, sodium acetate, reference compound]",de novo lipid induction compared to the control,"[1]; sebocytes, 5 mmol.L^−1",significant
same,Nuclear count,[1]; sebocytes,18574 ± 2148 =
same,Size of nucleus,[1]; sebocytes,215 ± 5 =
same,Nuclear count,"[1]; sebocytes, listed as acetate",no effect
same,Size of nucleus,"[1]; sebocytes, listed as acetate",no effect
same,% of excreted TGs (compared to control),[2],−10% =
same,FC (compared to control) of excreted TGs,[2],"FC = 0.90, ="
"CCC(=O)[O-].[Na+] [Proprionate, sodium propionate]",nuclear count per well,[1]; [3],decrease in the nuclear count per well
same,size of LDs compared to controls,[1]; [3],LDs increased in size as the concentration of propionate increased
same,number of LDs per cell,"[1]; sebocytes, pure propionate 5 mmol·l^−1",about 12 LDs/cell
same,% of excreted TGs (compared to control),[2]; listed as P5,+20%
same,FC (compared to control) of excreted TGs,[2]; listed as P5,~1.2
"CCCC(=O)[O-].[Na+] [butyrate, sodium butyrate]",nuclear count per well,[1]; [3],decrease in the nuclear count per well
same,FC of TGs excreted,"[2]; 15 mmol·l−1, 24 h",FC of TGs in B15>FC of TGs in B5
"CCCCC(=O)O [valerate, valeric acid]",nuclear count per well,[1]; [3],decrease in the nuclear count per well
same,% of TGs excreted,"[2]; 15 mmol·l−1, 24 h",+100%
same,FC of TGs excreted,"[2]; 15 mmol·l−1, 24 h",~2
